# Numbering of substitutions follows the chain as printed.
# Columns and labels:
# Assay type in all cases: cell-based
# [1] = Cell proliferation assay (WST-1), 6-day exposure; settings: 144 h, read-out: Antiproliferation IC50
# Experimental: Cell proliferation assay: WST-1 assay (Roche, Basel, Switzerland) was used to quantify cell viability after a 6-day exposure to compounds, as described in Gong et al. Mol. Cell. Endocrinol. 2016, 437, 190-200. Absorbance was measured at 450 nm using a VICTOR X5 PerkinElmer 2030 Multilabel Plate Reader, and cell proliferation values represent signal from compound-treated samples relative to vehicle-treated controls. All assays were performed in triplicate, and the values shown are the average SD of 2-3 independent experiments.
# HA-ERα L536R = target: T1, HA-ERα L536R (Homo sapiens, UniProt P03372, L536R); assay: Luciferase assay, overexpressed ER (3×-ERE-TATA-Luciferase reporter); settings: compound concentration 1 μM, 24 hours
# T1 construct: HA; expressed in transfected cells
# T1 sequence (P03372 1-595 L536R): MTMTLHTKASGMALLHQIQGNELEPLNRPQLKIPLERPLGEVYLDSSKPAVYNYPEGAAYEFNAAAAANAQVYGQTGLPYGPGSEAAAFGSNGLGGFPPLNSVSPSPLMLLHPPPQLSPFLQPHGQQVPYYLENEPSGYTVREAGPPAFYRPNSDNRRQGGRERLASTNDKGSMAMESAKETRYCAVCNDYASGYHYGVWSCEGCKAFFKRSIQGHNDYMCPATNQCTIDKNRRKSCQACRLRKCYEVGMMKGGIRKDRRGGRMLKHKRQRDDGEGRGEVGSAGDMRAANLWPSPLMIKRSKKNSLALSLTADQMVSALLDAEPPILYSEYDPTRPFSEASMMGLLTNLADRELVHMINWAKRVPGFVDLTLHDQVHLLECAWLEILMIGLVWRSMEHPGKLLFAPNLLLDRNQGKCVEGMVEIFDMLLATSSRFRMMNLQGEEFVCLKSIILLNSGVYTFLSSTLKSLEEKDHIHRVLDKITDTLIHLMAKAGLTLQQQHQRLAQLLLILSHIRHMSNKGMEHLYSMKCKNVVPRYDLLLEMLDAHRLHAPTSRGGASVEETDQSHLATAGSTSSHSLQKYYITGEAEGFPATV
# Experimental: (§1) Luciferase assays were performed to determine the efficacy of the example compounds at inhibiting ER or its mutants' ability to activate transcription of genes.
# (§2) Cells were plated at a density of 0.15×10^6 per well of 24 well plates one day prior to transfection. Cells were transfected with 125 ng (per well) of HA-ERα wild type or mutants, 315 ng (per well) of 3×-ERE-TATA-Luciferase reporter and 50 ng (per well) of pRL-TK Renilla Luciferase plasmid, using Xtremegene (Roche). The cells were treated with the various compounds or Fulvestrant at the indicated doses a day after transfection for 24 hours and luciferase activities were determined using the Dual-Luciferase® Reporter Assay System (Promega) according to manufacturer's instructions. Luciferase bioluminescence measurements were performed with the Veritas™ Microplate Luminometer (Promega). All experiments were conducted in triplicate and the Firefly luciferase activity was normalized with the Renilla luciferase activity of each sample.
# HA-ERα D538G = target: T2, HA-ERα D538G (Homo sapiens, UniProt P03372, D538G); assay: as above; settings: compound concentration 1 μM, 24 hours
# T2 construct: HA; expressed in transfected cells
# T2 sequence (P03372 1-595 D538G): T1 sequence (P03372 1-595 L536R) with R536L, D538G
# Experimental: as §1, §2
# HA-ERα Y537S = target: T3, HA-ERα Y537S (Homo sapiens, UniProt P03372, Y537S); assay: as above; settings: compound concentration 1 μM, 24 hours
# T3 construct: HA; expressed in transfected cells
# T3 sequence (P03372 1-595 Y537S): T1 sequence (P03372 1-595 L536R) with R536L, Y537S
# Experimental: as §1, §2
# MCF7 = assay: Luciferase assay in MCF7; set-up: concentration or dose not given beside the values
# Experimental: as §1, §2
# CRISPR KI Y537S = target: T4, CRISPR KI Y537S (Homo sapiens, UniProt P03372, Y537S); assay: Luciferase assay, CRISPR KI Y537S clones; set-up: concentration or dose not given beside the values; settings: for CRISPR KI (% Inhibition) Y537S cl. 4: clone 4; for CRISPR KI (% Inhibition) Y537S cl. 24: clone 24
# T4 construct: endogenous in cells; host or cells: CRISPR knock-in clones (cl. 4, cl. 24)
# T4 sequence (P03372 1-595 Y537S): T1 sequence (P03372 1-595 L536R) with R536L, Y537S
# Experimental: as §1, §2
SMILES,inhibition at 1 µM (HA-ERα L536R) [%],inhibition at 1 µM (HA-ERα D538G) [%],inhibition at 1 µM (HA-ERα Y537S) [%],CRISPR KI (% Inhibition) Y537S cl. 4 (CRISPR KI Y537S) [%],CRISPR KI (% Inhibition) Y537S cl. 24 (CRISPR KI Y537S) [%],IC50 [1] [nM],MCF7 (% Inhibition) (MCF7) [%]
"CC(C)(C)OC(=O)N[C@@H](Cc1c[nH]c2ccccc12)C(=O)NCCCCOc1ccc(C(=C2C3CC4CC(C3)CC2C4)c2ccc(O)cc2)cc1 [Example 1, (S)-tert-Butyl (1-((4-(4-(adamantan-2-ylidene(4-hydroxyphenyl)methyl)-phenoxy)butyl)amino)-3-(1H-indol-3-yl)-1-oxopropan-2-yl)carbamate]",70,84,62,−74,−34,16,71
"O=C(NCCCCOc1ccc(C(=C2C3CC4CC(C3)CC2C4)c2ccc(O)cc2)cc1)C12CC3CC(CC(C3)C1)C2 [Example 6, N-(4-(4-(Adamantan-2-ylidene(4-hydroxyphenyl)methyl)phenoxy)-butyl)adamantane-1-carboxamide]",70,87,62,−187,−108,13,70
"CC12CC3CC(C)(C1)CC(C(=O)NCCCCOc1ccc(C(=C4C5CC6CC(C5)CC4C6)c4ccc(O)cc4)cc1)(C3)C2 [Example 7, N-(4-(4-(Adamantan-2-ylidene(4-hydroxyphenyl)methyl)phenoxy)butyl)-3,5-dimethyladamantane-1-carboxamide]",77,83,46,−70,−64,5,53
"O=C(NCCCCOc1ccc(C(=C2C3CC4CC(C3)CC2C4)c2ccc(O)cc2)cc1)C12CC3CC(CC1C3)C2 [Example 8, N-(4-(4-((Adamantan-2-ylidene)(4-hydroxyphenyl)methyl)phenoxy)butyl)-hexahydro-2,5-methanopentalene-3a(1H)-carboxamide]",84,89,31,−387,−249,12,77
"O=C(NCCCCOc1ccc(C(=C2C3CC4CC(C3)CC2C4)c2ccc(O)cc2)cc1)[C@H]1C[C@@H]2C=C[C@H]1C2 [Example 9, (1R, 2S, 4R)—N-(4-(4-(Adamantan-2-ylidene(4-hydroxyphenyl)methyl)phenoxy)-butyl)bicyclo[2.2.1]hept-5-ene-2-carboxamide]",89,92,33,−369,−384,9,73

# The next lines start with results.
inhibition at 1 µM (HA-ERα L536R) [%],inhibition at 1 µM (HA-ERα D538G) [%],inhibition at 1 µM (HA-ERα Y537S) [%],CRISPR KI (% Inhibition) Y537S cl. 4 (CRISPR KI Y537S) [%],CRISPR KI (% Inhibition) Y537S cl. 24 (CRISPR KI Y537S) [%],SMILES,IC50 [1] [nM],MCF7 (% Inhibition) (MCF7) [%]
78,89,11,–,−496,"O=C(NCCCCOc1ccc(C(=C2C3CC4CC(C3)CC2C4)c2ccc(O)cc2)cc1)C1CCC1 [Example 10, N-(4-(4-(Adamantan-2-ylidene(4-hydroxyphenyl)methyl)phenoxy)butyl)-cyclobutanecarboxamide]",3,66
79,91,86,−62,−10,"O=C(NCCCCOc1ccc(C(=C2C3CC4CC(C3)CC2C4)c2ccc(O)cc2)cc1)C1CCCCC1 [Example 11, N-(4-(4-(Adamantan-2-ylidene(4-hydroxyphenyl)methyl)phenoxy)butyl)-cyclohexanecarboxamide]",0.6,84
87,92,58,−232,−199,"O=C(NCCCCOc1ccc(C(=C2C3CC4CC(C3)CC2C4)c2ccc(O)cc2)cc1)C1CCCCCC1 [Example 12, N-(4-(4-(Adamantan-2-ylidene(4-hydroxyphenyl)methyl)phenoxy)butyl)-cycloheptanecarboxamide]",5,82
90,92,46,−334,−327,"O=C(NCCCCOc1ccc(C(=C2C3CC4CC(C3)CC2C4)c2ccc(O)cc2)cc1)C1CCC(F)(F)CC1 [Example 13, N-(4-(4-(Adamantan-2-ylidene(4-hydroxyphenyl)methyl)phenoxy)butyl)-4,4-difluorocyclohexanecarboxamide]",4,80
82,88,26,−342,−421,"O=C(NCCCCOc1ccc(C(=C2C3CC4CC(C3)CC2C4)c2ccc(O)cc2)cc1)[C@H]1CC[C@H](C(F)(F)F)CC1 [Example 14, (trans)-N-(4-(4-(Adamantan-2-ylidene(4-hydroxyphenyl)methyl)phenoxy)-butyl)-4-(trifluoromethyl)cyclohexanecarboxamide]",0.5,72

# — patent publication US11667621B2, “Antiestrogen compounds” (STEVENS INSTITUTE OF TECHNOLOGY, priority 2018, dated 2023)
